Tests used:
[1] = target: T1, c-Met (Homo sapiens, UniProt P08581); experiment: In vitro c-Met enzymatic assay (HTRF); format: biochemical; conditions: for IC50: HTRF assay, mean ± SD, triplicate, read-out: IC50 against c-Met; for fold loss of c-Met inhibitory activity compared to 51w: ratio of c-Met IC50 to that of 51w
T1 construct: purchased Invitrogen (Waltham, MA)
Method: Inhibition of target compounds on c-Met kinase activity was measured by using the homogeneous time-resolved fluorescence (HTRF) assay.
The tyrosine kinases inhibitory activities of target compounds were evaluated in 384-well microtiter plates using purified kinases purchased from Invitrogen (Waltham, MA) by homogeneous time-resolved fluorescence (HTRF) assay. The HTRF KinEASE TK kit was performed according to the instructions. After the kinases and test compounds were incubated at 25–30 °C for 5 min, the kinase reactions were initiated by addition of 39 μL of kinase reaction buffer solution and incubated at 25–30 °C for 30 min. The reactions were quenched by addition 10 µL mixed detection solution. […] The inhibition rate (%) was calculated using the following equation: inhibition rate = [(activity of enzyme with tested compound – min)/(max – min)] × 100 (max: the enzyme activity in the presence of enzyme, substrates and cofactors; min: the enzyme activity in the presence of substrates, cofactors and in the absence of enzyme). IC50 value was calculated from the inhibition curve using GraphPad Prism 5.0 software (La Jolla, CA).

[2] = tested on: A549; experiment: MTT antiproliferative assay, A549; conditions: Homo sapiens, A549, 48 h, read-out: IC50 A549
Method: (§1) MTT assay was used to determine the cytotoxic activity of target compounds against different cell lines. […] Then, the cells were treated with five doses of test compounds (pre-dissolved in DMSO), and 0.1% DMSO was used as a negative control. […] The results expressed as IC50 were the average of three determinations calculated by using the Bacus Laboratories Incorporated Slide Scanner (Bliss) software.

[3] = tested on: HT-29; experiment: MTT antiproliferative assay, HT-29; conditions: Homo sapiens, HT-29, 48 h, read-out: IC50 HT-29
Method: as §1

[4] = tested on: MKN-45; experiment: MTT antiproliferative assay, MKN-45; conditions: Homo sapiens, MKN-45, 48 h, read-out: IC50 MKN-45
Method: as §1

[5] = tested on: MDA-MB-231; experiment: MTT antiproliferative assay, MDA-MB-231; conditions: Homo sapiens, MDA-MB-231, 48 h, read-out: IC50 MDA-MB-231
Method: as §1

[6] = tested on: FHC; experiment: MTT cytotoxicity assay, normal FHC cells; conditions: Homo sapiens, 48 h, read-out: IC50 FHC
Method: as §1

[7] = tested on: HUVEC; experiment: MTT cytotoxicity assay, normal HUVEC cells; conditions: Homo sapiens, 48 h, read-out: IC50 HUVEC
Method: as §1

T1 sequence (P08581 25-1390): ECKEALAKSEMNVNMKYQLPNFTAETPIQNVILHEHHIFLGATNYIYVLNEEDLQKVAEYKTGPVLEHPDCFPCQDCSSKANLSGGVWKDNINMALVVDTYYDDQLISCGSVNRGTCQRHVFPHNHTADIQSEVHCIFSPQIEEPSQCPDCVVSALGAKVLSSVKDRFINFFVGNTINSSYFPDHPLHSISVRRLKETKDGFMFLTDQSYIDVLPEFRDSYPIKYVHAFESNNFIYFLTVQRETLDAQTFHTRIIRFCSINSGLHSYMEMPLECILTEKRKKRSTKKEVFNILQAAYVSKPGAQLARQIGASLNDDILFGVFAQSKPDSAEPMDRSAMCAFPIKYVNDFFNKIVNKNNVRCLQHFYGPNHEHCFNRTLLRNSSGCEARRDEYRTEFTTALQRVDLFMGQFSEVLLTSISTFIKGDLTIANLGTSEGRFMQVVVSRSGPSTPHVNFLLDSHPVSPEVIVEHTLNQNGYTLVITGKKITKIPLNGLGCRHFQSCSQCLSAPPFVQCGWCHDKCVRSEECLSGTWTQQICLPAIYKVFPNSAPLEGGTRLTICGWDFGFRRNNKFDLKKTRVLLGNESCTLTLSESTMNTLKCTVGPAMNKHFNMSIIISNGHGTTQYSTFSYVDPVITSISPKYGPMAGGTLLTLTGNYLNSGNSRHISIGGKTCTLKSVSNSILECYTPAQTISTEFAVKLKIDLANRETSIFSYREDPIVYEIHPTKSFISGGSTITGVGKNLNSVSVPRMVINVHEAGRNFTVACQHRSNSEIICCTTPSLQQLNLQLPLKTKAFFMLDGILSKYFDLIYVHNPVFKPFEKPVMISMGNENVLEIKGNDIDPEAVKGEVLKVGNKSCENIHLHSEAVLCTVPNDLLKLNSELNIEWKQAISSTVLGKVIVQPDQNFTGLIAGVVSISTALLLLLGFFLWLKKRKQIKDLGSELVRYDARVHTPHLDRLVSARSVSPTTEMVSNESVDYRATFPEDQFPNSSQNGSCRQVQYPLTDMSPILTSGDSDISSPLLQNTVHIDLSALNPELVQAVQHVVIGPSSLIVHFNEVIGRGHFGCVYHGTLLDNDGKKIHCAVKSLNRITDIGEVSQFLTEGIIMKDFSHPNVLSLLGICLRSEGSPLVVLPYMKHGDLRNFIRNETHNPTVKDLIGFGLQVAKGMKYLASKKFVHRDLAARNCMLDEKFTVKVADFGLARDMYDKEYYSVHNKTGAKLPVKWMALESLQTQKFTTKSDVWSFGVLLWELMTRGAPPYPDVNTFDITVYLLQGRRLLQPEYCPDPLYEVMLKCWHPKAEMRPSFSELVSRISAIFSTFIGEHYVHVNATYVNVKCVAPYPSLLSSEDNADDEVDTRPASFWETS

SMILES | IC50 [1] [nM] | melting point [°C] | IC50 [2] [µM] | IC50 [3] [µM] | IC50 [4] [nM] | IC50 [5] [µM] | IC50 [6] [µM] | IC50 [7] [µM] | fold loss of c-Met inhibitory activity compared to 51w [1] [fold]
COc1cc2nccc(Oc3ccc(NC(=O)c4nc(-c5ccccc5)ns4)cc3)c2cc1OC [Compound 51a, N-(4-((6,7-Dimethoxyquinolin-4-yl)oxy)phenyl)-3-phenyl-1,2,4-thiadiazole-5-carboxamide] | 56.6 ± 4.82 | 145 to 147 | 26.4 ± 1.24 | 24.4 ± 1.68 | 9250 ± 860 | > 50 | > 100 | > 100 | –
O=C(Nc1ccc(Oc2ccnc(Cl)c2)c(F)c1)c1nc(-c2ccc(F)cc2)cs1 [Compound 51aa, N-(4-((2-Chloropyridin-4-yl)oxy)-3-fluorophenyl)-4-(4-fluorophenyl)thiazole-2-carboxamide] | 15.6 ± 2.43 | 150 to 152 | 4.83 ± 0.72 | 4.36 ± 0.38 | 950 ± 180 | 11.7 ± 1.39 | 24.6 ± 4.23 | 15.3 ± 2.16 | –
O=C(Nc1ccc(Oc2ccnc(Cl)c2)c(F)c1)c1nc(-c2cccc(F)c2)cs1 [Compound 51ab, N-(4-((2-Chloropyridin-4-yl)oxy)-3-fluorophenyl)-4-(3-fluorophenyl)thiazole-2-carboxamide] | 23.2 ± 2.16 | 189 to 191 | 6.02 ± 0.87 | 6.95 ± 0.82 | 1490 ± 630 | 10.1 ± 1.88 | 20.2 ± 3.62 | 12.7 ± 0.83 | –
O=C(Nc1ccc(Oc2ccnc(Cl)c2)c(F)c1)c1nc(-c2ccccc2F)cs1 [Compound 51ac, N-(4-((2-Chloropyridin-4-yl)oxy)-3-fluorophenyl)-4-(2-fluorophenyl)thiazole-2-carboxamide] | 18.5 ± 3.05 | 168 to 170 | 7.54 ± 0.62 | 9.53 ± 0.75 | 1940 ± 260 | 18.1 ± 2.14 | 31.3 ± 2.63 | 19.4 ± 0.83 | –
O=C(Nc1ccc(Oc2ccnc(Cl)c2)c(F)c1)c1nc(-c2ccc(Cl)cc2)cs1 [Compound 51ad, 4-(4-Chlorophenyl)-N-(4-((2-chloropyridin-4-yl)oxy)-3-fluorophenyl)thiazole-2-carboxamide] | 17.8 ± 1.82 | 167 to 169 | 6.75 ± 0.55 | 8.04 ± 0.93 | 1740 ± 230 | 15.2 ± 1.46 | 26.5 ± 1.28 | 18.5 ± 2.04 | –
O=C(Nc1ccc(Oc2ccnc(Cl)c2)c(F)c1)c1nc(-c2cccc(Cl)c2)cs1 [Compound 51ae, 4-(3-Chlorophenyl)-N-(4-((2-chloropyridin-4-yl)oxy)-3-fluorophenyl)thiazole-2-carboxamide] | 23.4 ± 3.61 | 171 to 173 | 7.08 ± 0.95 | 9.62 ± 1.56 | 1950 ± 680 | 19.2 ± 2.35 | 24.5 ± 1.84 | 13.1 ± 0.95 | –
O=C(Nc1ccc(Oc2ccnc(Cl)c2)c(F)c1)c1nc(-c2ccc(Br)cc2)cs1 [Compound 51af, 4-(4-Bromophenyl)-N-(4-((2-chloropyridin-4-yl)oxy)-3-fluorophenyl)thiazole-2-carboxamide] | 19.2 ± 1.44 | 192 to 194 | 8.23 ± 1.42 | 11.7 ± 1.63 | 2060 ± 450 | 20.5 ± 3.65 | 21.6 ± 2.82 | 11.5 ± 0.83 | –
O=C(Nc1ccc(Oc2ccnc(Cl)c2)c(F)c1)c1nc(-c2ccc(C(F)(F)F)cc2)cs1 [Compound 51ag, N-(4-((2-Chloropyridin-4-yl)oxy)-3-fluorophenyl)-4-(4(trifluoromethyl)phenyl)thiazole-2-carboxamide] | 39.4 ± 5.25 | 212 to 214 | 12.4 ± 2.85 | 20.4 ± 3.02 | 5840 ± 1210 | 30.6 ± 2.64 | – | 43.2 ± 3.53 | –
O=C(Nc1ccc(Oc2ccnc(Cl)c2)c(F)c1)c1nc(-c2ccc(Cl)c(Cl)c2)cs1 [Compound 51ah, N-(4-((2-Chloropyridin-4-yl)oxy)-3-fluorophenyl)-4-(3,4-dichlorophenyl)thiazole-2-carboxamide] | 9.26 ± 1.34 | 195 to 197 | 3.17 ± 0.51 | 2.78 ± 0.49 | 530 ± 420 | 7.29 ± 1.22 | 20.4 ± 1.86 | 12.4 ± 0.85 | –
O=C(Nc1ccc(Oc2ccnc(Cl)c2)c(F)c1)c1nc(-c2ccc3ccccc3c2)cs1 [Compound 51ai, N-(4-((2-Chloropyridin-4-yl)oxy)-3-fluorophenyl)-4-(naphthalen-2-yl)thiazole-2-carboxamide] | 61.4 ± 4.58 | 182 to 184 | 15.3 ± 2.81 | 21.5 ± 1.58 | 6120 ± 1380 | 30.3 ± 2.16 | > 100 | > 100 | 2.6
O=C(Nc1ccc(Oc2ccnc(Cl)c2)c(F)c1)c1nc(-c2cccs2)cs1 [Compound 51aj, N-(4-((2-chloropyridin-4-yl)oxy)-3-fluorophenyl)-4-(thiophen-2-yl)thiazole-2-carboxamide] | 49.5 ± 5.36 | 184 to 186 | 11.5 ± 2.17 | 17.5 ± 2.44 | 4550 ± 910 | 25.9 ± 3.41 | > 100 | 52.3 ± 3.74 | 2.1
O=C(Nc1ccc(Oc2ccnc(Cl)c2)c(F)c1)c1nc(-c2ccc(F)c(Cl)c2)cs1 [Compound 51ak, 4-(3-Chloro-4-fluorophenyl)-N-(4-((2-chloropyridin-4-yl)oxy)-3-fluorophenyl)thiazole-2-carboxamide] | 3.89 ± 0.52 | 168 to 170 | 1.81 ± 0.34 | 1.56 ± 0.32 | 220 ± 40 | 4.24 ± 0.68 | 13.2 ± 0.84 | 8.52 ± 1.35 | –
COc1cc2nccc(Oc3ccc(NC(=O)c4nc(-c5ccc(F)cc5)cs4)cc3)c2cc1OC [Compound 51f, N-(4-((6,7-Dimethoxyquinolin-4-yl)oxy)phenyl)-4-(4-fluorophenyl)thiazole-2-carboxamide] | 29.1 ± 3.53 | 84 to 86 | 14.7 ± 3.27 | 22.4 ± 1.94 | 4950 ± 820 | 31.8 ± 2.56 | – | 45.5 ± 3.83 | –
COc1cc2nccc(Oc3ccc(NC(=O)c4nc(-c5ccccc5)cs4)cc3C)c2cc1OC [Compound 51n, N-(4-((6,7-Dimethoxyquinolin-4-yl)oxy)-3-methylphenyl)-4-phenylthiazole-2-carboxamide] | 45.6 ± 6.03 | 136 to 138 | 17.5 ± 2.25 | 24.4 ± 2.14 | 7210 ± 950 | – | > 100 | > 100 | –
COc1ccc(-c2csc(C(=O)Nc3ccc(Oc4ccnc(Cl)c4)c(F)c3)n2)cc1 [Compound 51y, N-(4-((2-Chloropyridin-4-yl)oxy)-3-fluorophenyl)-4-(4-methoxyphenyl)thiazole-2-carboxamide] | 36.7 ± 2.97 | 191 to 193 | 9.28 ± 1.85 | 14 ± 2.26 | 3220 ± 860 | 28.5 ± 2.35 | – | 32.4 ± 1.98 | –

From PMC10467532, “Design, synthesis, and biological evaluation of thiazole/thiadiazole carboxamide scaffold-based derivatives as potential c-Met kinase inhibitors for cancer treatment” (Journal of Enzyme Inhibition and Medicinal Chemistry, 2023)
